Assay results published in paper PMC8746709, “Benzothiazolium Derivative-Capped Silica Nanocomposites for β-Amyloid Imaging In Vivo” (Analytical Chemistry, 2021).

Target: T1, β-amyloid(1–42) (Aβ1–42) aggregates (Homo sapiens, UniProt P05067)
T1 construct: gene APP; Aβ1–42, aggregates (filamentous)
Assay: fluorescence saturation binding assay with Aβ[…] aggregates

T1 sequence (P05067 672-713): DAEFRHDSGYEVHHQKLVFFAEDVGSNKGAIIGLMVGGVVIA

SMILES: CN(C)c1ccc(/C=C/c2sc3ccccc3[n+]2C)cc1 [SZI-1, (E)-2-(4-(Dimethylamino)styryl)-3-methylbenzo[d]thiazol-3-ium Iodide]
- Kd: 508 ± 94.8 nM

SMILES: CN(C)c1ccc(/C=C/C=C/c2sc3ccccc3[n+]2C)cc1 [SZI-2, 2-((1E,3E)-4-(4-(Dimethylamino)phenyl)buta-1,3-dien-1-yl)-3-methylbenzo[d]thiazol-3-ium Iodide]
- Kd: 601 ± 94.8 nM
